pIC50: −log10 of the molar value.
These compounds were tested against T1, Syk kinase (Homo sapiens, UniProt P43405) (assay: Syk kinase inhibition, Caliper LabChip off-chip mobility-shift kinase assay). Conditions: read-out: Syk Enzyme IC50.
T1 construct: purchased
Assay type: biochemical
Summary of the method: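 Purified Syk pre-incubated 15 min with compound in 100 mM HEPES pH 7.5, 1 mM DTT, 10 mM MgCl2 or MnCl2, 0.002% Brij-35, then 1.5 μM fluorescein peptide and ATP at apparent KM added; 1–1.5 h at room temperature, 4% DMSO, EDTA stop. Microfluidic mobility-shift product/substrate conversion gave % inhibition; IC50 from 12-point series (10–0.00003 μM) by 4-parameter fit.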

SMILES	pIC50
CCN1CCN(Cc2n[nH]c3cc(Nc4nc(-c5ccc(C)nc5)cc5cc[nH]c(=O)c45)ccc23)CC1 [compound 203]	7.31
CN(C)Cc1n[nH]c2cc(Nc3nc(-c4cncc(C(=O)N5CCOCC5)c4)cc4cc[nH]c(=O)c34)ccc12 [compound 205]	6.98
Cc1cc(Nc2nc(-c3cncc(C(=O)N4CCOCC4)c3)cc3cc[nH]c(=O)c23)ccc1C1CCN(C2CC2)CC1 [compound 208]	6.95
COc1ccc(-c2cc3cc[nH]c(=O)c3c(Nc3ccc(C4CCN(C5CC5)CC4)c(C)c3)n2)cc1OC [compound 213]	6.00
COCCN1CCN(c2n[nH]c3cc(Nc4nc(-c5cnc(OC)nc5)cc5cc[nH]c(=O)c45)ccc23)CC1 [compound 216]	7.43
COCCN1CCN(c2n[nH]c3cc(Nc4nc(-c5cncc(OC)n5)cc5cc[nH]c(=O)c45)ccc23)CC1 [compound 217]	7.54
Cc1ccc(-c2cc3cc[nH]c(=O)c3c(Nc3ccc(C4CCN(C5CC5)CC4)c(C)c3)n2)cn1 [compound 219]	7.05
CCOCCc1cc2cc[nH]c(=O)c2c(Nc2ccc(N3CCO[C@H](C)C3)c(C)c2)n1 [compound 222]	6.61
CCCc1cc2cc[nH]c(=O)c2c(Nc2ccc(N3CCO[C@H](C)C3)c(C)c2)n1 [compound 225]	5.64
Cc1cc(Nc2nc(C(C)C)cc3cc[nH]c(=O)c23)ccc1N1CCO[C@H](C)C1 [compound 226]	5.76
C/C=C/c1cc2cc[nH]c(=O)c2c(Nc2ccc(C3CCN(C4CC4)CC3)c(C)c2)n1 [compound 228]	5.78
C=C(C)c1cc2cc[nH]c(=O)c2c(Nc2ccc(C3CCN(C4CC4)CC3)c(C)c2)n1 [compound 229]	6.13
CC(=O)c1cc2cc[nH]c(=O)c2c(Nc2ccc(C3CCNCC3)c(C)c2)n1 [compound 232]	6.62
CCOC(C)c1cc2cc[nH]c(=O)c2c(Nc2ccc(N3CCO[C@H](C)C3)c(C)c2)n1 (some centres unmarked) [compound 233]	6.12
CO/N=C(\C)c1cc2cc[nH]c(=O)c2c(Nc2ccc(N3CCO[C@H](C)C3)c(C)c2)n1 [compound 234]	5.88
C[C@@H]1CN(c2ccc(Nc3nc(CCC(=O)O)cc4cc[nH]c(=O)c34)cn2)CCO1 [compound 243]	6.51

SMILES	pIC50
O=c1[nH]ccc2cc(CCO)nc(Nc3ccc(N4CCOCC4)cc3)c12 [compound 244]	7.51
Cc1cnc(Nc2cc3cc[nH]c(=O)c3c(Nc3ccc(C4CCN(C5CC5)CC4)c(C)c3)n2)cn1 [compound 248]	5.69
Cc1cc(Nc2nc(Nc3ccc(Cl)cn3)cc3cc[nH]c(=O)c23)ccc1C1CCN(C2CC2)CC1 [compound 250]	5.68
Cc1cc(Nc2nc(Nc3ccc(C(N)=O)cn3)cc3cc[nH]c(=O)c23)ccc1C1CCN(C2CC2)CC1 [compound 251]	7.24
CCc1ccnc(Nc2cc3cc[nH]c(=O)c3c(Nc3ccc(C4CCN(C5CC5)CC4)c(C)c3)n2)c1 [compound 253]	7.48
Cc1cc(Nc2nc(Nc3cc(C(F)(F)F)ccn3)cc3cc[nH]c(=O)c23)ccc1C1CCN(C2CC2)CC1 [compound 255]	6.36
Cc1cc(Nc2nc(Nc3ccc(S(N)(=O)=O)cn3)cc3cc[nH]c(=O)c23)ccc1C1CCN(C2CC2)CC1 [compound 258]	7.21
Cc1cc(Nc2nc(Nc3cc(CO)ccn3)cc3cc[nH]c(=O)c23)ccc1C1CCN(C2CC2)CC1 [compound 260]	7.31
CCC(C)Nc1nc(Nc2cc(C)ccn2)cc2cc[nH]c(=O)c12 (centres unmarked) [compound 262]	6.70
CCC(C)Nc1nc(Nc2ccccn2)cc2cc[nH]c(=O)c12 (centres unmarked) [compound 263]	6.12
Cc1ccnc(Nc2cc3cc[nH]c(=O)c3c(NC(C)CO)n2)c1 (centres unmarked) [compound 265]	7.74
Cc1ccnc(Nc2cc3cc[nH]c(=O)c3c(NC(C)C(C)C)n2)c1 (centres unmarked) [compound 268]	6.46
Cc1ccnc(Nc2cc3cc[nH]c(=O)c3c(NC3CCOC3)n2)c1 (centres unmarked) [compound 273]	7.38
CC(C)CC(C)Nc1nc(Nc2ccccn2)cc2cc[nH]c(=O)c12 (centres unmarked) [compound 275]	5.50
CC(C)C(C)Nc1nc(Nc2ccccn2)cc2cc[nH]c(=O)c12 (centres unmarked) [compound 278]	5.66

The next lines start with the values.

pIC50	SMILES
7.15	CCN1CCN(c2n[nH]c3cc(Nc4nc(-c5cnc(OC)nc5)cc5cc[nH]c(=O)c45)ccc23)CC1 [compound 201]
7.57	CCN1CCN(Cc2n[nH]c3cc(Nc4nc(-c5cncnc5)cc5cc[nH]c(=O)c45)ccc23)CC1 [compound 202]
7.32	CCN1CCN(Cc2n[nH]c3cc(Nc4nc(-c5cnc(OC)nc5)cc5cc[nH]c(=O)c45)ccc23)CC1 [compound 204]
7.22	CCN1CCN(c2n[nH]c3cc(Nc4nc(-c5cncc(C(=O)N6CCOCC6)c5)cc5cc[nH]c(=O)c45)ccc23)CC1 [compound 206]
7.05	CCN1CCN(Cc2n[nH]c3cc(Nc4nc(-c5cncc(C(=O)N6CCOCC6)c5)cc5cc[nH]c(=O)c45)ccc23)CC1 [compound 207]
7.96	CCN1CCN(c2n[nH]c3cc(Nc4nc(-c5cncc(OC)n5)cc5cc[nH]c(=O)c45)ccc23)CC1 [compound 209]
7.06	COc1cncc(-c2cc3cc[nH]c(=O)c3c(Nc3ccc(C4CCN(C5CC5)CC4)c(C)c3)n2)n1 [compound 210]
6.71	Cc1cc(Nc2nc(-c3cnn(CC(C)C)c3)cc3cc[nH]c(=O)c23)ccc1C1CCN(C2CC2)CC1 [compound 211]
6.41	Cc1cc(-c2cc3cc[nH]c(=O)c3c(Nc3ccc(C4CCN(C5CC5)CC4)c(C)c3)n2)ccn1 [compound 212]
7.77	COCCN1CCN(c2n[nH]c3cc(Nc4nc(-c5cncnc5)cc5cc[nH]c(=O)c45)ccc23)CC1 [compound 214]
7.17	COCCN1CCN(c2n[nH]c3cc(Nc4nc(-c5ccc(C)nc5)cc5cc[nH]c(=O)c45)ccc23)CC1 [compound 215]
6.46	Cc1cc(Nc2nc(-c3ccc(N(C)C)nc3)cc3cc[nH]c(=O)c23)ccc1C1CCN(C2CC2)CC1 [compound 218]
6.09	CC(=O)c1cc2cc[nH]c(=O)c2c(Nc2ccc(N3CCO[C@H](C)C3)c(C)c2)n1 [compound 220]
6.60	CC(=O)c1cc2cc[nH]c(=O)c2c(Nc2ccc(C3CCN(C4CC4)CC3)c(C)c2)n1 [compound 221]
6.40	CCOCCc1cc2cc[nH]c(=O)c2c(Nc2ccc(C3CCN(C4CC4)CC3)c(C)c2)n1 [compound 227]
6.25	CCCc1cc2cc[nH]c(=O)c2c(Nc2ccc(C3CCN(C4CC4)CC3)c(C)c2)n1 [compound 230]
6.06	Cc1cc(Nc2nc(C(C)C)cc3cc[nH]c(=O)c23)ccc1C1CCN(C2CC2)CC1 [compound 231]
6.99	CO/N=C(\C)c1cc2cc[nH]c(=O)c2c(Nc2ccc(C3CCNCC3)c(C)c2)n1 [compound 235]
7.92	Cc1cc(Nc2nc(C(C)O)cc3cc[nH]c(=O)c23)ccc1C1CCNCC1 (centres unmarked) [compound 236]
6.39	CO/N=C(\C)c1cc2cc[nH]c(=O)c2c(Nc2ccc(C3CCN(C4CC4)CC3)c(C)c2)n1 [compound 237]
5.89	COCCCc1cc2cc[nH]c(=O)c2c(Nc2ccc(C3CCN(C4CC4)CC3)c(C)c2)n1 [compound 238]
5.65	COCCCc1cc2cc[nH]c(=O)c2c(Nc2ccc(N3CCO[C@H](C)C3)c(C)c2)n1 [compound 239]

pIC50	SMILES
6.45	COCCCc1cc2cc[nH]c(=O)c2c(Nc2ccc(N3CCOCC3)cc2)n1 [compound 240]
6.68	C[C@@H]1CN(c2ccc(Nc3nc(/C=C/C(=O)O)cc4cc[nH]c(=O)c34)cn2)CCO1 [compound 241]
6.48	CCOC(=O)/C=C/c1cc2cc[nH]c(=O)c2c(Nc2ccc(N3CCOCC3)cc2)n1 [compound 242]
6.53	CCOC(=O)CCc1cc2cc[nH]c(=O)c2c(Nc2ccc(N3CCOCC3)cc2)n1 [compound 245]
7.39	Cc1cc(Nc2nc(CCO)cc3cc[nH]c(=O)c23)ccc1C1CCN(C2CC2)CC1 [compound 246]
7.35	O=c1[nH]ccc2cc(CCCO)nc(Nc3ccc(N4CCOCC4)cc3)c12 [compound 247]
5.80	Cc1ccc(Nc2cc3cc[nH]c(=O)c3c(Nc3ccc(C4CCN(C5CC5)CC4)c(C)c3)n2)nc1 [compound 249]
7.49	Cc1ccnc(Nc2cc3cc[nH]c(=O)c3c(Nc3ccc(C4CCN(C5CC5)CC4)c(C)c3)n2)c1 [compound 252]
6.85	Cc1cc(C)nc(Nc2cc3cc[nH]c(=O)c3c(Nc3ccc(C4CCN(C5CC5)CC4)c(C)c3)n2)c1 [compound 256]
6.77	Cc1cc(Nc2nc(Nc3cc(Cl)ccn3)cc3cc[nH]c(=O)c23)ccc1C1CCN(C2CC2)CC1 [compound 257]
6.59	COc1ccnc(Nc2cc3cc[nH]c(=O)c3c(Nc3ccc(C4CCN(C5CC5)CC4)c(C)c3)n2)c1 [compound 259]
6.60	Cc1cc(Nc2nc(Nc3cc(C(=O)O)ccn3)cc3cc[nH]c(=O)c23)ccc1C1CCN(C2CC2)CC1 [compound 261]
6.37	CCC(C)Nc1nc(Nc2ccc(F)cn2)cc2cc[nH]c(=O)c12 (centres unmarked) [compound 264]
7.13	COCC(C)Nc1nc(Nc2cc(C)ccn2)cc2cc[nH]c(=O)c12 (centres unmarked) [compound 266]
6.26	Cc1ccnc(Nc2cc3cc[nH]c(=O)c3c(N3CCCC3)n2)c1 [compound 269]
5.16	Cc1ccnc(Nc2cc3cc[nH]c(=O)c3c(NC(C)CC(C)C)n2)c1 (centres unmarked) [compound 270]
6.56	Cc1ccnc(Nc2cc3cc[nH]c(=O)c3c(N3CCOCC3)n2)c1 [compound 272]
7.26	CC(CO)Nc1nc(Nc2ccccn2)cc2cc[nH]c(=O)c12 (centres unmarked) [compound 274]
6.78	COCC(C)Nc1nc(Nc2ccccn2)cc2cc[nH]c(=O)c12 (centres unmarked) [compound 276]
5.85	O=c1[nH]ccc2cc(Nc3ccccn3)nc(N3CCCC3)c12 [compound 279]
7.06	COCCCNc1nc(Nc2cc(C)ccn2)cc2cc[nH]c(=O)c12 [compound 281]

Reference: patent US20110053897A1 (IRM LLC, priority 2009, published 2011)
